From article PMC6017331, “Bacterial Production, Characterization and Protein Modeling of a Novel Monofuctional Isoform of FAD Synthase in Humans: An Emergency Protein?” (Molecules : A Journal of Synthetic Chemistry and Natural …, 2018)
Each block holds one molecule with its values, some of them ahead of it.

How the values were obtained:
[1] = biological target: T1, hFADS6 (6-His-hFADS6; human FAD synthase isoform 6) (Homo sapiens, UniProt Q8NFF5); test: fluorimetric FAD synthesis, Michaelis-Menten fit; type: biochemical; settings: 5 mM MgCl2, 50 mM Tris/HCl pH 7.5, 37 °C
T1 construct: gene FLAD1; 320 residues (963 bp cDNA) from Met268 of FADS1, PAPS reductase domain plus N-terminal extension; E. coli Rosetta(DE3)pLysS; monomer

[2] = biological target: T1, hFADS6 (6-His-hFADS6; human FAD synthase isoform 6); test: absorbance spectrum and HPLC of acid-extracted flavin from purified protein; type: binding; settings: co-purified from E. coli; tightly but not covalently bound
[3] = biological target: T1, hFADS6 (6-His-hFADS6; human FAD synthase isoform 6); test: fluorimetric FAD pyrophosphorolysis; type: biochemical; settings: NaPPi, 5 mM MgCl2, 50 mM Tris/HCl pH 7.5, 37 °C; reverse reaction; detection limit of the instrument; read-out: KmFAD
[4] = biological target: human FAD synthase isoform 2 (6-His-hFADS2) (human); test: SEC-MALS; tandem HPLC-GPC/LS on a Superose 12 10/300 GL column, 0.5 mL/min, 40 mM Hepes/Na, 150 mM NaCl, pH 7.4; MALS masses taken from the peaks run with 1 mM DTT

T1 sequence (Q8NFF5 268-587): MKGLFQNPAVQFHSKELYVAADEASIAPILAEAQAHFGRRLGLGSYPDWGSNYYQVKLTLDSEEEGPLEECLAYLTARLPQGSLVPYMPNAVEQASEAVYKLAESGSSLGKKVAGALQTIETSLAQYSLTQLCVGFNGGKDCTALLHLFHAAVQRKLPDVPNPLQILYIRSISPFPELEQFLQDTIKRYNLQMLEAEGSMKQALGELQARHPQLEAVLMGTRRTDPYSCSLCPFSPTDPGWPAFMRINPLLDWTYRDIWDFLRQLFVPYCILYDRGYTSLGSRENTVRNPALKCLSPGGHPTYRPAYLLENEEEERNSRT
Sequence of human FAD synthase isoform 2 (6-His-hFADS2) (enzyme) (Q8NFF5 98-587): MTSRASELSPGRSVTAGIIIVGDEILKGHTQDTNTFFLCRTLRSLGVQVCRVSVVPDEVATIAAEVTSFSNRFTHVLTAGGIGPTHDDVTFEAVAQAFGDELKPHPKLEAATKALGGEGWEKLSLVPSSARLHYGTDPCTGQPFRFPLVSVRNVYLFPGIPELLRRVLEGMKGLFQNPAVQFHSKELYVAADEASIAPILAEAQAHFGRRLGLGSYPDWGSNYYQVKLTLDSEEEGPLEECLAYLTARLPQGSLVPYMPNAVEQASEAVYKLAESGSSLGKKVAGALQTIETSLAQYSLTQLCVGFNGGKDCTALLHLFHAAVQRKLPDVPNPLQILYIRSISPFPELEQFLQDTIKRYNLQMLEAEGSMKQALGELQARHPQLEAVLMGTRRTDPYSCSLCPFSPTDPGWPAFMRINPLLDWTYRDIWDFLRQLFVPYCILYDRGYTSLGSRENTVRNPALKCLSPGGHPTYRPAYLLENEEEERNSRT

Km ([1]; 2 µM FMN, read-out: KmATP (apparent)): 6.91 ± 0.51 µM
Molecule: Nc1ncnc2c1ncn2[C@@H]1O[C@H](COP(=O)(O)OP(=O)(O)OP(=O)(O)O)[C@@H](O)[C@H]1O [ATP]

Km [3]: < 0.1 µM
Molecule: Cc1cc2nc3c(=O)[nH]c(=O)nc-3n(C[C@H](O)[C@H](O)[C@H](O)COP(=O)(O)OP(=O)(O)OC[C@H]3O[C@@H](n4cnc5c(N)ncnc54)[C@H](O)[C@@H]3O)c2cc1C [FAD]
FAD/monomer ratio [2]: demonstrates that the bound cofactor is FAD

Km ([1]; 100 µM ATP, read-out: KmFMN (apparent)): 0.13 ± 0.01 µM
Molecule: Cc1cc2nc3c(=O)[nH]c(=O)nc-3n(C[C@H](O)[C@H](O)[C@H](O)COP(=O)(O)O)c2cc1C [FMN]

stoichiometry N [4]: 2
Molecule: human FAD synthase isoform 2 (6-His-hFADS2) (enzyme)
